Data: patent publication US6461611B1, “Agents for the prevention of damages caused by stress conditions” (Hadasit Medical Research Services & Development Limited, priority 1998, dated 2002)

What was measured:
[1] = test system: ThR mRNA; assay: Northern blot of ThR mRNA level in neonatal rat ventricular myocytes under normal conditions or hypoxia; assay type: cell-based
Method: RNA was prepared using TRI-Reagent (Molecular Research Center, Inc. Cincinnati) according to the manufacturer's instructions. […] For the detection of ThR a 250 nucleotide PCR product was used. The membrane was washed twice for 30 mins. at room temperature with 1×SSC containing 0.1% SDS and twice for 30 mins. at 55° C. with 0.1×SSC, containing 0.1% SDS. The blots were exposed for 2-4 days at −70° C. and the relative amounts of mRNA transcripts were analyzed by laser densitometry using an Ultrascan XL Enhanced Laser Densitometer and normalized relative to an internal β-actin controls.
Primary cultures of neonatal rat ventricular mycocytes were subjected to hypoxia conditions (0% oxygen, 20 torr), and the level of ThR transcripts were compared to the level of the receptor transcripts in cells under normal oxygen levels (21% oxygen). […] The 4.1 kb mRNA was detected following hybridization with full length ThR cDNA and the intensity of the bands was quantitated by densitometry and normalized to the actin transcript levels.
The level of ThR mRNA following hypoxia, in the presence of α-thrombin was also determined. For this, rat ventricular myocytes were subjected to serum free conditions and α-thrombin (5×10^−8M) was added for a period of 48 hours and the level of ThR was determined.
Therefore the effect of interruption of the signaling cascase on the protection effect was analyzed. For this, calphostin C, a protein kinase C (PKC) inhibitor was added during the activation of ThR with TRAP.

[2] = test system: myocytes; assay: LDH activity released into the medium of normal and hypoxic myocytes; assay type: cell-based, rat; settings: calphostin C 10 nM or 100 nM in the presence and absence of TRAP (10 μM)
Method: FIG. 4B. LDH levels were measured in the medium of normal (A,B,E,G) and hypoxic (C,D,F,H) myocytes. TRAP (10 μM) was added (for 48 h) to normal cells (B,E,G) or prior to subjecting the cells to hypoxia (D,F,H). Cells were treated with calphostin C at 10 nM (E,F) or 100 nM (G,H). LDH levels were determined at 340 nm.
Cell viability under hypoxia conditions was measured by lactate dehydrogenase (LDH) assay of the medium by using diagnostic kit according to the manufacturer's instructions (Sigma, St. Louis, Mo.). Released LDH is a stable enzymatic marker that correlates with cell viability. Total LDH activity was determined in culture medium plus LDH released from the cells after treatment with 0.5% Triton X-100. All results are expressed as mean±SEM of triplicate sample (I—Weiscner, M S et al., 1998. Induction of endothelial cell PAS domain protein-1 by hypoxia: characterization and comparison with hypoxia-inducible factor-1-alpha. Blood, 92(7);2260-8. II—Brooks et al., 1998. Modulation of VEGF production by pH and glucose in retinal muller cells. Curr. Eye Res., 17(9):875-882).

calphostin C was tested, and the “protection of ThR transcript level under hypoxia by TRAP” value ([1]; hypoxia, TRAP activated ThR in the presence of calphostin C (1 nM, 100 nM)) was “showed no longer the protection”, the “level of ThR mRNA” value ([1]; normal conditions, calphostin C 200 nM) was “did not affect” and the “level of ThR transcripts” value ([1]; normal conditions, calphostin C (1 nM and 100 nM) added together with TRAP (1 μM)) was “did not affect”. The “stressed hypoxic conditions as observed by the released LDH activity” value [2] was “did not affect the stressed hypoxic conditions”.
